Experiments:
[1] = target: Mu-type opioid receptor (Homo sapiens, UniProt P35372)
[2] = target: 3',5'-cyclic-AMP phosphodiesterase 4A (Homo sapiens, UniProt P27815); type: functional
[3] = target: T1, Alpha-2A adrenergic receptor (Homo sapiens, UniProt P08913)
T1 sequence (P08913 whole entry): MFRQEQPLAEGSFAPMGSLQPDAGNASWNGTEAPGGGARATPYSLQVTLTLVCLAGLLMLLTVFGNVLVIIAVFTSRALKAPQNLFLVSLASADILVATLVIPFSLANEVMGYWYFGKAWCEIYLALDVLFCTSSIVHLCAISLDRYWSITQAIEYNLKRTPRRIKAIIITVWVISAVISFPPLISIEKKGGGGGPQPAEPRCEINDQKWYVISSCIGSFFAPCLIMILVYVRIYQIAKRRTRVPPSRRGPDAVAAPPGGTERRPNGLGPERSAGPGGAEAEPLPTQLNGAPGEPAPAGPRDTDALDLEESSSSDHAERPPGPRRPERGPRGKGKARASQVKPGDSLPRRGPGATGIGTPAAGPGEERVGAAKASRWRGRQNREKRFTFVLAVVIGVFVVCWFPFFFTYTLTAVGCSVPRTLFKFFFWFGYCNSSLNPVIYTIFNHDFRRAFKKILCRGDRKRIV

[4] = target: Histamine H3 receptor (Homo sapiens, UniProt Q9Y5N1)
[5] = target: T2, 5-hydroxytryptamine receptor 1A (Homo sapiens, UniProt P08908)
T2 sequence (P08908 whole entry): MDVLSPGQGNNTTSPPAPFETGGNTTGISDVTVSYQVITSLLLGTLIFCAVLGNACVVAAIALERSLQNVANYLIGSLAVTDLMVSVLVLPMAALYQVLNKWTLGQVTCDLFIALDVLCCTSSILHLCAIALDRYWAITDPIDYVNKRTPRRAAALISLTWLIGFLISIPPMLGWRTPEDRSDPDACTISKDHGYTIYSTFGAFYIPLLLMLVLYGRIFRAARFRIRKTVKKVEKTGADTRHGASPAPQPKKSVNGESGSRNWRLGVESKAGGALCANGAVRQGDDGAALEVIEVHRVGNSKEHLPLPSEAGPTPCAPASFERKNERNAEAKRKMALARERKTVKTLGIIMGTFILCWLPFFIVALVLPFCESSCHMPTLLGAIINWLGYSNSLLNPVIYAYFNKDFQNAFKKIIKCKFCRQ

[6] = target: Voltage-gated inwardly rectifying potassium channel KCNH2 (Homo sapiens, UniProt Q12809); type: functional; conditions: read-out: AC50
[7] = target: D(3) dopamine receptor (Homo sapiens, UniProt P35462)
[8] = target: D(1A) dopamine receptor (Homo sapiens, UniProt P21728)
[9] = target: Sodium-dependent noradrenaline transporter (Homo sapiens, UniProt P23975)
[10] = target: T3, Alpha-1A adrenergic receptor (Homo sapiens, UniProt P35348); type: functional, cell-based
T3 sequence (P35348 whole entry): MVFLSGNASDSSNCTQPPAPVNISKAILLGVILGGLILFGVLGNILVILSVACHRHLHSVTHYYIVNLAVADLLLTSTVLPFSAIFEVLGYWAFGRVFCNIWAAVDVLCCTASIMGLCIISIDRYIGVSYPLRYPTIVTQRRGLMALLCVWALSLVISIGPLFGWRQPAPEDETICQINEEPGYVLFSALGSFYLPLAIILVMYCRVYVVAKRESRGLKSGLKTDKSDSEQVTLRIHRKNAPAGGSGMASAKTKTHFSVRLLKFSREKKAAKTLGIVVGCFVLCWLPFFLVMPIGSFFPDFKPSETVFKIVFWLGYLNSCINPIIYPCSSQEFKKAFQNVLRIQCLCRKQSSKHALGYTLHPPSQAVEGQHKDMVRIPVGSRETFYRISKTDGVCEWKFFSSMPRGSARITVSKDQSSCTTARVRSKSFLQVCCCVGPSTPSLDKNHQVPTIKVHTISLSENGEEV

[11] = target: T4, Amine oxidase [flavin-containing] A (Homo sapiens, UniProt P21397); type: functional
T4 sequence (P21397 whole entry): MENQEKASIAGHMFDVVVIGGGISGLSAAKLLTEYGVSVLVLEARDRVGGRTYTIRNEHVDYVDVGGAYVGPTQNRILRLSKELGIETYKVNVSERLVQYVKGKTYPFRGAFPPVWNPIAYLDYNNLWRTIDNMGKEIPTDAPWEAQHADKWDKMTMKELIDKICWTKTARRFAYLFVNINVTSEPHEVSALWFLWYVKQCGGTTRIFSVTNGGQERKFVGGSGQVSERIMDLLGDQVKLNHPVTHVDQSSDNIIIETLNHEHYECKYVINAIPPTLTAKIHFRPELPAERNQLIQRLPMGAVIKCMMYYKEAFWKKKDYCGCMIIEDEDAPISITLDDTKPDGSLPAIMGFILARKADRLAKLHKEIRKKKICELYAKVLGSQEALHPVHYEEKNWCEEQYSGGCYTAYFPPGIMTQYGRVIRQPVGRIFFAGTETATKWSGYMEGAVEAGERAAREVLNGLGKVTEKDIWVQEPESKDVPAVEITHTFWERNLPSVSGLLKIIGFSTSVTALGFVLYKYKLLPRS

[12] = target: Prothrombin (Homo sapiens, UniProt P00734); type: functional
[13] = target: Sodium-dependent dopamine transporter (Homo sapiens, UniProt Q01959)
[14] = target: T5, Muscarinic acetylcholine receptor M2 (Homo sapiens, UniProt P08172)
T5 sequence (P08172 whole entry): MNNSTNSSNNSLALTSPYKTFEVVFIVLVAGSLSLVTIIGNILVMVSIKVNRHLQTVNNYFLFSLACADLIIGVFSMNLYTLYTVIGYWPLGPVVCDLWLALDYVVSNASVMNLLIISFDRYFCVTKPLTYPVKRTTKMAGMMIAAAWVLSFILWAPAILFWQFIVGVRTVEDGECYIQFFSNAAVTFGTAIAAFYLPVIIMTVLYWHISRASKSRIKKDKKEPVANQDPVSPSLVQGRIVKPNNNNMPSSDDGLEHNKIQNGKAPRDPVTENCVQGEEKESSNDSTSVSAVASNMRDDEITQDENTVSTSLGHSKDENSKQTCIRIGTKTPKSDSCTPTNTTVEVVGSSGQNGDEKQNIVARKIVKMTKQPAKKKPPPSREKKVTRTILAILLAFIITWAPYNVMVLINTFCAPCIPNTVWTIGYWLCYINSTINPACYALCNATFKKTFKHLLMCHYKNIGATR
Also: assay procedure not described here.

Chain of D(3) dopamine receptor (P35462 whole entry): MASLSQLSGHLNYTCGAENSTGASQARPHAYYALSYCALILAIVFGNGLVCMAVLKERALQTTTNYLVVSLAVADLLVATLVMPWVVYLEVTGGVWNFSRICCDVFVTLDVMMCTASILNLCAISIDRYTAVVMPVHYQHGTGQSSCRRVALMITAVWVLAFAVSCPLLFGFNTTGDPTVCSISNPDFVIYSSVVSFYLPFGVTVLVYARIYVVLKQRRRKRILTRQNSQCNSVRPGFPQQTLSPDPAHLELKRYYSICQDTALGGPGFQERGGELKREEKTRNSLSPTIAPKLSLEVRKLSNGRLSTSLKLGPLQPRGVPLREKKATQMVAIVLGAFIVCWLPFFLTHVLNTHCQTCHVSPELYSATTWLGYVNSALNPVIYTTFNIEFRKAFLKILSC
Chain of Histamine H3 receptor (Q9Y5N1 whole entry): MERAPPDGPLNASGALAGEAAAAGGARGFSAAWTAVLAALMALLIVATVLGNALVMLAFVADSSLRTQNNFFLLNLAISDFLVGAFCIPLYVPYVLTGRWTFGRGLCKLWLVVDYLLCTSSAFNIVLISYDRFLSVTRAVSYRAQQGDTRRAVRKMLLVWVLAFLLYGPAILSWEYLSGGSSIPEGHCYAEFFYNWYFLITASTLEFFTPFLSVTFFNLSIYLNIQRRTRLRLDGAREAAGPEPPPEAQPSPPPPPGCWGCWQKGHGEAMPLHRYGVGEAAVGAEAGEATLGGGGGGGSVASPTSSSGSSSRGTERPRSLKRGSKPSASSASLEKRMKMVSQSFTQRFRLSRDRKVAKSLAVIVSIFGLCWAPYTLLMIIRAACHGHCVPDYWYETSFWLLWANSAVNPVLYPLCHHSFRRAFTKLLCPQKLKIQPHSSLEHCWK
Chain of Sodium-dependent dopamine transporter (Q01959 whole entry): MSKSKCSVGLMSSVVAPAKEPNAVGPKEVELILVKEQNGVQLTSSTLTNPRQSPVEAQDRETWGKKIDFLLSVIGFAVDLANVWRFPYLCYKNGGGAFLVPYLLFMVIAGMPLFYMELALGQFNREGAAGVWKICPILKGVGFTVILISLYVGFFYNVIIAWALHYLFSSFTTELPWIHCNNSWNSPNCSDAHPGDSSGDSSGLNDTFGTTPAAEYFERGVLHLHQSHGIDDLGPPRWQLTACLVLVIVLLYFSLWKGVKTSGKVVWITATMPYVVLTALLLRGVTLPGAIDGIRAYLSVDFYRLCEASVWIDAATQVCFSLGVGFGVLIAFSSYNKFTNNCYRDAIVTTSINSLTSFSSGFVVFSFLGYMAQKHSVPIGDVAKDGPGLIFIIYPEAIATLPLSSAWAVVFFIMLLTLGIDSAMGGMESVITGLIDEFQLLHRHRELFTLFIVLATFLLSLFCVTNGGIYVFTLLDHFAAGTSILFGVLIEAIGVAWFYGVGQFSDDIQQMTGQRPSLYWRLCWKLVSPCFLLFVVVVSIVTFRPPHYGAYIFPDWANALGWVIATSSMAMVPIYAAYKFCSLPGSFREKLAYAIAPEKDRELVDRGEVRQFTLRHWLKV
Chain of 3',5'-cyclic-AMP phosphodiesterase 4A (P27815 whole entry): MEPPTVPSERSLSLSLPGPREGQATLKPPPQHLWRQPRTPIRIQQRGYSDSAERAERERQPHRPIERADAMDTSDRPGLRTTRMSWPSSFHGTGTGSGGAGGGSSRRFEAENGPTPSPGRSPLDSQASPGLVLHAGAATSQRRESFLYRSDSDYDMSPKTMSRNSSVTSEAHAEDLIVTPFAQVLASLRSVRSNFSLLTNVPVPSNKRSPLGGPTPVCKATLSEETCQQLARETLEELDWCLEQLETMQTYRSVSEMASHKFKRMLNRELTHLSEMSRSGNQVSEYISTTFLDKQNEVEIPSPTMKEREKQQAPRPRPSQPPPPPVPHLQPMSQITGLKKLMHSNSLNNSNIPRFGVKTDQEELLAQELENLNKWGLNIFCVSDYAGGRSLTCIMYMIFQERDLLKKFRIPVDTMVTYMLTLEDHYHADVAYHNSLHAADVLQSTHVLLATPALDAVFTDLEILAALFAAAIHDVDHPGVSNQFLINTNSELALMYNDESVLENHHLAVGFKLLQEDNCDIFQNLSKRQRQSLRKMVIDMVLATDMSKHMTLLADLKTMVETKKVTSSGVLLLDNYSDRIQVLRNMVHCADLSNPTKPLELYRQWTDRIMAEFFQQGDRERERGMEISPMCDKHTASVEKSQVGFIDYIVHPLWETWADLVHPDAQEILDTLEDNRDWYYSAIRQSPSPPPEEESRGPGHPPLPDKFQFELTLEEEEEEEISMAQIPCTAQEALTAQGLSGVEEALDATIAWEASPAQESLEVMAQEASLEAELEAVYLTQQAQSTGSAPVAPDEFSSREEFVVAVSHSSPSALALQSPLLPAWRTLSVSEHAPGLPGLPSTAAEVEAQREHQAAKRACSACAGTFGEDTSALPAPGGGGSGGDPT
Chain of D(1A) dopamine receptor (P21728 whole entry): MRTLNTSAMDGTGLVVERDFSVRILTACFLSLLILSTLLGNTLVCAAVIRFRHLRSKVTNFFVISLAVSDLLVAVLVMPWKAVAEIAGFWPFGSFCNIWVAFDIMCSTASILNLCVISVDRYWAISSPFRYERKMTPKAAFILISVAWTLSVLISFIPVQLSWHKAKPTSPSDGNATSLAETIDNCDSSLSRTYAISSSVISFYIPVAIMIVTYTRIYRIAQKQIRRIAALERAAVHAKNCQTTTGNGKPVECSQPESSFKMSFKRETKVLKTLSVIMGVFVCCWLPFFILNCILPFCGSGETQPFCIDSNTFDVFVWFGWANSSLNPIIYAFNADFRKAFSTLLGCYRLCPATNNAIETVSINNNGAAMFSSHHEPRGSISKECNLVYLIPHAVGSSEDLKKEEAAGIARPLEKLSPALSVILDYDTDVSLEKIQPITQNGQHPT
Chain of Mu-type opioid receptor (P35372 whole entry): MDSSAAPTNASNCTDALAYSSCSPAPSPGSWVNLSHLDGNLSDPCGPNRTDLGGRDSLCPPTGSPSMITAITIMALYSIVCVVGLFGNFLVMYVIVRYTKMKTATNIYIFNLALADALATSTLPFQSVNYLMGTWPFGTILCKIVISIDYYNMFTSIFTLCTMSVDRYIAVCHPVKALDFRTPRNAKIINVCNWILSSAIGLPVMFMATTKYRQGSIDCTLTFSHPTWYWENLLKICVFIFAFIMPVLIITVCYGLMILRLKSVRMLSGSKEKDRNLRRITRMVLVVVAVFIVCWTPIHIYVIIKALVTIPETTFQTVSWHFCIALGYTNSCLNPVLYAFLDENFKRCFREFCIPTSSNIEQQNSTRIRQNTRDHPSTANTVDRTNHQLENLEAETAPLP
Chain of Sodium-dependent noradrenaline transporter (P23975 whole entry): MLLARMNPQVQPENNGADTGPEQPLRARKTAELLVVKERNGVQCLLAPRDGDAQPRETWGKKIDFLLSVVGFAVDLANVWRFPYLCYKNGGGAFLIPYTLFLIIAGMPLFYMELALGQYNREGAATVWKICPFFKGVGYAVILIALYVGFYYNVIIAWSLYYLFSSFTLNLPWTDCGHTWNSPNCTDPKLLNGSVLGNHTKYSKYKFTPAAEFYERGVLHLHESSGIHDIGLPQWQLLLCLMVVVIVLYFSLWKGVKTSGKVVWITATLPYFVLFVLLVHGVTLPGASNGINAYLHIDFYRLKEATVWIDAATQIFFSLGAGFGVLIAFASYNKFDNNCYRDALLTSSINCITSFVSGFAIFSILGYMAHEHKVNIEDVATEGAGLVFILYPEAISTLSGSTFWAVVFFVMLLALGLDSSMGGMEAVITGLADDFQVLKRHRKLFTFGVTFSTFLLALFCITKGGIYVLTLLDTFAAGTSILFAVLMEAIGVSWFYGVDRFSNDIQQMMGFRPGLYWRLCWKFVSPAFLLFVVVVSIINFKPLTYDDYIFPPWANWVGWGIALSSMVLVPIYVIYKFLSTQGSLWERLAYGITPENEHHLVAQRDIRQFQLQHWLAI
Chain of Voltage-gated inwardly rectifying potassium channel KCNH2 (Q12809 whole entry): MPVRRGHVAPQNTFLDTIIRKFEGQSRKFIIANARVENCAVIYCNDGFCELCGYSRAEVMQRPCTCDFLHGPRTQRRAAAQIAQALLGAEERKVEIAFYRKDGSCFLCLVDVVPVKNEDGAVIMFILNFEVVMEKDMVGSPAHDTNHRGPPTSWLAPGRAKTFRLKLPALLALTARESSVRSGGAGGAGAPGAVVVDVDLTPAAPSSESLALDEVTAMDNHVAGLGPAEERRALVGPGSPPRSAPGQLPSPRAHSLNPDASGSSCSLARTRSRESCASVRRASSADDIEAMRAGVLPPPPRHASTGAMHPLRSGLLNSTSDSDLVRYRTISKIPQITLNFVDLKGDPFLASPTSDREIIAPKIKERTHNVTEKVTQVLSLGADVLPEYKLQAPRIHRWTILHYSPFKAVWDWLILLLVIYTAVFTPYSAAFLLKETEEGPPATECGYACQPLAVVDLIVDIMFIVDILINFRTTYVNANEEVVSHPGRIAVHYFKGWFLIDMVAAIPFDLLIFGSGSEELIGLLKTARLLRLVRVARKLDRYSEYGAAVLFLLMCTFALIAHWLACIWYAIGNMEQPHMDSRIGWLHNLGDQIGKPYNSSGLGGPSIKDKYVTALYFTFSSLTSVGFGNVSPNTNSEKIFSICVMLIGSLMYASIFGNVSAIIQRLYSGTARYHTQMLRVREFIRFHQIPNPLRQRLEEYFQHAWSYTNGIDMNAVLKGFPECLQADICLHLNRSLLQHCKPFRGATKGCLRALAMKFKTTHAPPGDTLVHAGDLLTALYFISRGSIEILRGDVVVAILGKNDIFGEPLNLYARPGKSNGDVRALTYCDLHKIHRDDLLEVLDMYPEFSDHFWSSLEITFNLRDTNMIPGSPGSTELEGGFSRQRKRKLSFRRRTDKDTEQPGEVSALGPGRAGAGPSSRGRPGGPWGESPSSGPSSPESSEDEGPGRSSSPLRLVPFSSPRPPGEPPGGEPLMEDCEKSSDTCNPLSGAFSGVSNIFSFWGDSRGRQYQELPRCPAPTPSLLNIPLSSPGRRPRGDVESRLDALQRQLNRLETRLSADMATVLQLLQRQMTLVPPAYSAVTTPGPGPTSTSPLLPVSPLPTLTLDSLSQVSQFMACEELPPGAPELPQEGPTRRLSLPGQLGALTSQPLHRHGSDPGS

Compound	AC50 [1] [µM]	AC50 [2] [µM]	AC50 [3] [µM]	AC50 [4] [µM]	AC50 [5] [µM]	AC50 [6] [µM]	AC50 [7] [µM]	AC50 [8] [µM]	AC50 [9] [µM]	AC50 [10] [µM]	AC50 [11] [µM]	AC50 [12] [µM]	AC50 [13] [µM]	AC50 [14] [µM]
C[C@]1(COc2ccc(N3CCC(Oc4ccc(OC(F)(F)F)cc4)CC3)cc2)Cn2cc([N+](=O)[O-])nc2O1	> 30	> 30	> 30	> 30	> 30	> 30	> 30	> 30	12.9	> 30	> 30	> 30	> 30	> 30
CNC(=O)C[C@@H](N)C(=O)N[C@@H](C(=O)N[C@@H]1C(=O)N2[C@@H]1SC(C)(C)[C@@H]2C(=O)O)c1ccc(O)cc1 [ASPOXICILLIN]	> 30	> 30	> 30	> 30	> 30	–	> 30	> 30	> 30	> 30	> 30	> 30	> 30	> 30
Cc1nnc(SCC2=C(C(=O)O)N3C(=O)[C@@H](NC(=O)Cn4cc(Cl)c(=O)c(Cl)c4)[C@H]3SC2)s1 [CEFAZEDONE]	> 30	28.1	> 30	> 30	> 30	–	> 30	> 30	> 30	> 30	> 30	> 30	> 30	> 30
O=C(O)CC(O)(CC(=O)O)C(=O)O [CITRIC ACID]	> 30	> 30	> 30	> 30	> 30	–	> 30	> 30	> 30	> 30	> 30	> 30	> 30	> 30
C[C@@H]1C[C@H]2[C@@H]3C[C@H](F)C4=CC(=O)C=C[C@]4(C)[C@@]3(Cl)[C@@H](O)C[C@]2(C)[C@H]1C(=O)COC(=O)C(C)(C)C [CLOCORTOLONE PIVALATE]	> 10	> 30	> 30	> 30	> 30	–	> 30	> 30	> 30	> 30	> 30	> 30	> 10	> 10
O=P(O)(O)C(Cl)(Cl)P(=O)(O)O [CLODRONIC ACID]	> 30	> 30	> 30	> 30	> 30	–	> 30	> 30	> 30	> 30	> 30	> 30	> 30	> 30
Nc1ccncc1 [DALFAMPRIDINE]	> 30	> 30	> 30	> 30	> 30	–	> 30	> 30	> 30	> 30	> 30	> 30	> 30	> 30
O=C(CCCN1CC=C(n2c(=O)[nH]c3ccccc32)CC1)c1ccc(F)cc1 [DROPERIDOL]	> 30	> 30	> 30	> 30	> 30	–	> 30	> 30	> 30	> 30	> 30	> 30	> 30	> 30
CC(N)CCCC(C)(C)O (stereo not given) [HEPTAMINOL]	> 30	> 30	> 30	> 30	> 30	–	> 30	> 30	> 30	> 30	> 30	> 30	> 30	> 30
CC1(C)S[C@@H]2[C@H](NC(=O)[C@H](NC(=O)N3CCN(S(C)(=O)=O)C3=O)c3ccccc3)C(=O)N2[C@H]1C(=O)O [MEZLOCILLIN]	> 30	> 30	> 30	> 30	> 30	–	> 30	> 30	> 30	> 30	> 30	> 30	> 30	> 30
CC(c1ccc(Cl)c(Cl)c1)N1N=C(N)CC1=O (stereo not given) [MUZOLIMINE]	> 30	> 30	> 30	> 30	> 30	–	> 30	> 30	> 30	> 30	> 30	> 30	> 30	> 30
c1cc(CN2CCCNCCNCCCNCC2)ccc1CN1CCCNCCNCCCNCC1 [PLERIXAFOR]	> 30	> 30	> 30	0.307	> 30	–	> 30	> 30	> 30	> 30	> 30	> 30	> 30	> 30
O=C(NC(Cc1cc(=O)[nH]c2ccccc12)C(=O)O)c1ccc(Cl)cc1 (stereo not given) [REBAMIPIDE]	> 30	> 30	> 30	> 30	> 30	–	> 30	> 30	> 30	> 30	> 30	> 30	> 30	> 30

From ChEMBL document CHEMBL5291721, “A preclinical secondary pharmacology resource illuminates target-adverse drug reaction associations of marketed drugs” (Nat Commun, 2023)
